How the values were obtained:
[1] = tested on: T1, G6PDH, hepatopancreas, 24 h anoxic (low phosphate form); assay: spectrophotometric NADPH production at […] nm; assay type: biochemical, Littorina littorea; settings: pH 8.0, 50 mM Tris-HCl, 22 °C
T1 construct: gene G6PD; native enzyme in Sephadex G-50 filtered hepatopancreas extract of 24 h anoxic snails; low phosphate form, same gene product as P1; not purified for kinetics

[2] = tested on: T2, G6PDH, hepatopancreas, aerobic control (high phosphate form); assay: spectrophotometric NADPH production at […] nm; assay type: biochemical, Littorina littorea; settings: pH 8.0, 50 mM Tris-HCl, 22 °C
T2 construct: gene G6PD; native enzyme in Sephadex G-50 filtered hepatopancreas extract of aerobic control snails (bought at Kowloon Market, Ottawa); serine-phosphorylated, high phosphate form; not purified for kinetics

Row | Km ([1]; optimal NADP+ (1.0 mM)) | Km ([2]; optimal NADP+ (1.0 mM)) | Km ([1]; optimal G6P (4 mM)) | Km ([2]; optimal G6P (4 mM)) | SMILES
1 | 60 ± 3 µM | 97 ± 6 µM | – | – | O=P(O)(O)OC[C@H]1OC(O)[C@H](O)[C@@H](O)[C@@H]1O (stereo partly shown) [G6P]
2 | – | – | 115 ± 8 µM | 117 ± 6 µM | NC(=O)c1ccc[n+]([C@@H]2O[C@H](COP(=O)(O)OP(=O)(O)OC[C@H]3O[C@@H](n4cnc5c(N)ncnc54)[C@H](OP(=O)(O)O)[C@@H]3O)[C@@H](O)[C@H]2O)c1 [NADP^+]

Reference: paper PMC3628605, “Glucose-6-phosphate dehydrogenase regulation in the hepatopancreas of the anoxia-tolerant marine mollusc, Littorina littorea” (PeerJ, 2013)
